This is an account of results in paper PMC7004250 (Cell chemical biology, 2019).

The target of data set [1] is T1, EED in HeLa cells (Homo sapiens, UniProt O75530). The data set can be described thus: Jess ProteinSimple analysis of EED levels. In kind it is cell-based. The following applies: 5 μM, 4, 24 and 48 hrs, decrease stated at 24 hrs.
Data set [2] relates to EZH2 in HeLa cells. The data set can be described thus: Jess ProteinSimple analysis of EZH2 levels. The data set is classed as cell-based, human. Particulars: 5 μM, 4, 24 and 48 hrs, decrease stated at 24 hrs.
Data set [3] deals with 6XHis-tagged recombinant EED (residues 1 – 441) (Homo sapiens, UniProt O75530). The data set can be described thus: TR-FRET EED binding assay. Particulars: TR-FRET EED IC50 relative to EED226. In general terms: Time-resolved FRET reads energy transfer from a long-lived donor to a nearby acceptor.
In data set [4] the target is T1, EED in HeLa cells. The data set can be described thus: Western blot EED degradation in HeLa cells. In kind it is cell-based. The following applies: for EED protein levels: 10 μM, 24 to 72 hrs. On the technique in general: In western blotting, separated proteins are transferred to a membrane and probed.
The subject of data set [5] is EZH2 in HeLa cells. Put plainly: Western blot EZH2 degradation in HeLa cells. The following applies: for EZH2 protein levels: 10 μM, 24 to 72 hrs. The data set is classed as cell-based, human.
The test system of the next data set is H3K27me3 in HeLa cells. The data set can be described thus: Western blot H3K27me3 levels in HeLa cells. In kind it is cell-based, human. Particulars: for H3K27me3 reduced: 10 μM, after 72 hours.
A further data set is described as follows: DB cell viability. In kind it is cell-based. Particulars: human, DB cells.
The test system of data set [6] is SUZ12 in HeLa cells. Put plainly: Western blot SUZ12 degradation in HeLa cells. In kind it is cell-based, human.
The next data set deals with HeLa cells. The data set can be described thus: Cellular toxicity in HeLa cells. Particulars: concentrations up to 30 μM. In kind it is cell-based, human.
Data set [7] deals with SUZ12 in HeLa cells. The data set can be described thus: Global proteomics. The data set is classed as cell-based, human. The following applies: 10 μM, 24 hrs, TMT proteomics.
Data set [8] addresses EED in DB cells (EZH2^Y641N) (Homo sapiens, UniProt O75530). The data set can be described thus: Western blot EED degradation in DB cells. In kind it is cell-based.
Data set [9] concerns EZH2/EZH2^Y641N in DB cells. The data set can be described thus: Western blot EZH2 degradation in DB cells. In kind it is cell-based, human.
The subject of data set [10] is SUZ12 in DB cells (EZH2^Y641N). Put plainly: Western blot SUZ12 degradation in DB cells. The data set is classed as cell-based, human.
Data set [11] has as its system H3K27me3 in DB cells (EZH2^Y641N). The data set can be described thus: Western blot H3K27me3 levels in DB cells. The data set is classed as cell-based, human. Particulars: 10 μM, after 72 hours.
Data set [12] has as its target PRC2 subunits in Pfeiffer cells (EZH2^A677G) (Homo sapiens, UniProt O75530). Put plainly: PRC2 degradation in Pfeiffer cells. Particulars: Figure S6. In kind it is cell-based.
A further data set deals with DB cells. The data set can be described thus: DB cell proliferation. In kind it is cell-based, human. The following applies: up to 12 days, 3 μM (Figure 6A).
The subject of the next data set is Pfeiffer cells. The data set can be described thus: Pfeiffer cell proliferation. In kind it is cell-based, human. The following applies: up to 12 days, 3 μM (Figure 6B).
A further data set concerns EED. Particulars: read-out: reported IC50 (EED); ref Huang et al., 2017; cited from earlier work.

6XHis-tagged recombinant EED (residues 1 – 441), sequence (O75530 whole entry, the tested form may be a part): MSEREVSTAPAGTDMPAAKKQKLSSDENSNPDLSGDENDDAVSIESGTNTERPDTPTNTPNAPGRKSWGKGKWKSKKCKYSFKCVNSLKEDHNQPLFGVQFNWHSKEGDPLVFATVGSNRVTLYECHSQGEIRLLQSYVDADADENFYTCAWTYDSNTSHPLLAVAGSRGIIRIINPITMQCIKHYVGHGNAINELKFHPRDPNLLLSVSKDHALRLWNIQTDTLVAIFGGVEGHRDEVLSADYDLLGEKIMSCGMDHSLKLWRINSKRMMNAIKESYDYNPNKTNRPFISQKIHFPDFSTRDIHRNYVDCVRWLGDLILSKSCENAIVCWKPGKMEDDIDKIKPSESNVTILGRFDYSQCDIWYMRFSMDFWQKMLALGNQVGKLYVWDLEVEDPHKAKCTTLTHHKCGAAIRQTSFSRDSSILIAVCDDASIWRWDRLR
T1 sequence (O75530 whole entry): as the sequence (O75530 whole entry, the tested form may be a part) above
EED in DB cells (EZH2^Y641N), sequence (O75530 2-441 limits assumed, stated change not applied): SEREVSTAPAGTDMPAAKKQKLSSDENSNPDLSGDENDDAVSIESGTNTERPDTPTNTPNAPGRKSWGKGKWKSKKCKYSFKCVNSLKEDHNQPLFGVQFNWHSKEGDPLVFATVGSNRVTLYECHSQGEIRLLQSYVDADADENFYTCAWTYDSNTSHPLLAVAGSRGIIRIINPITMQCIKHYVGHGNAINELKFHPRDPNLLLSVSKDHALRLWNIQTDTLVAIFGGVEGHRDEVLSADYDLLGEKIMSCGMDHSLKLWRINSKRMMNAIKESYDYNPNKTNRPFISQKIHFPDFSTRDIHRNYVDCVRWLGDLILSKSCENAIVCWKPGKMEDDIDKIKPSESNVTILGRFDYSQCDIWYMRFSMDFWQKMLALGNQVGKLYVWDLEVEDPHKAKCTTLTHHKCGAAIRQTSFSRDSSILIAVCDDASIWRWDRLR
PRC2 subunits in Pfeiffer cells (EZH2^A677G), sequence (O75530 whole entry, stated change not applied): as the sequence (O75530 whole entry, the tested form may be a part) above
PRC2 subunits in Pfeiffer cells (EZH2^A677G), sequence (Q15910 whole entry A677G partner): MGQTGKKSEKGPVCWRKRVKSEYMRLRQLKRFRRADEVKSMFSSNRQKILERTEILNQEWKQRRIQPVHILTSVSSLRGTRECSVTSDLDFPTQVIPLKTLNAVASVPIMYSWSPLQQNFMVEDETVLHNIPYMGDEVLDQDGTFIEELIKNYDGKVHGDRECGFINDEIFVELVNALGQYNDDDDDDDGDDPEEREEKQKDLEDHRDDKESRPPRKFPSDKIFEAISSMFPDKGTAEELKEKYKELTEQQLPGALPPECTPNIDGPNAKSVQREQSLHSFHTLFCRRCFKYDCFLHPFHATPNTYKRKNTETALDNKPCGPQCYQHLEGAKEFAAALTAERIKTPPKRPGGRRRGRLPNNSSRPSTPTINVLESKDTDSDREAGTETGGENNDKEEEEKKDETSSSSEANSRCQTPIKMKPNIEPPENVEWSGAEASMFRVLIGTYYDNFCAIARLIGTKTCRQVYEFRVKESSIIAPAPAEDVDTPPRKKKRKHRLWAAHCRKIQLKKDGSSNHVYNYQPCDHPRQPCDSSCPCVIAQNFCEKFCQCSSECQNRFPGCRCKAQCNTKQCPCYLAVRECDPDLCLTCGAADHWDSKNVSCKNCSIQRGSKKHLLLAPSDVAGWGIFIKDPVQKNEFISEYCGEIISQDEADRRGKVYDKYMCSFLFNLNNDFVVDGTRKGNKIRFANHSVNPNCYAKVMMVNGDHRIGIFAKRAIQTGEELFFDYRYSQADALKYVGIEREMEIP
PRC2 subunits in Pfeiffer cells (EZH2^A677G), sequence (Q15022 whole entry partner): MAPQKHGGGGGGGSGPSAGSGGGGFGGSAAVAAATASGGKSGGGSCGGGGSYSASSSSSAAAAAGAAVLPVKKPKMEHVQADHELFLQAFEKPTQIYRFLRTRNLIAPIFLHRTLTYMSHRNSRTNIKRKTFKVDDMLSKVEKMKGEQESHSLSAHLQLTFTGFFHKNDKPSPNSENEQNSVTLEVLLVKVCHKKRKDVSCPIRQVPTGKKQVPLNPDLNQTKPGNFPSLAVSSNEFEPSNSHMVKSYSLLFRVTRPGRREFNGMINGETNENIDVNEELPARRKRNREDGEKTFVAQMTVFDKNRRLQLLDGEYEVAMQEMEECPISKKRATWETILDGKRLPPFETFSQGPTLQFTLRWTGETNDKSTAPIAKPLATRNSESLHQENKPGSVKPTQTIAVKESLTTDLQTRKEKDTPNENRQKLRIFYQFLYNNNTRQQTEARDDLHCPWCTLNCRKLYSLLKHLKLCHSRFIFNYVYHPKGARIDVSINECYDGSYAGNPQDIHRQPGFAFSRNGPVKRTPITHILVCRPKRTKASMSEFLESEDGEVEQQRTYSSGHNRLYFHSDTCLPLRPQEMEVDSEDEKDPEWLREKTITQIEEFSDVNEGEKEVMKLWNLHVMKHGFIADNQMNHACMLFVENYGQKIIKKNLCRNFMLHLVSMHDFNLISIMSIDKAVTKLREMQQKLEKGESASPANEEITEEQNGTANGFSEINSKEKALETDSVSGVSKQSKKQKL

Regarding `Cc1ncsc1-c1ccc(CNC(=O)[C@@H]2C[C@@H](O)CN2C(=O)[C@@H](NC(=O)CCNC(=O)c2ccc(-c3cnc(NCc4ccco4)n4cnnc34)cc2)C(C)(C)C)cc1` [UNC6851, (2S,4R)-1-((S)-2-(3-(4-(5-((furan-2-ylmethyl)amino)-[1,2,4]triazolo[4,3-c]pyrimidin-8-yl)benzamido)propanamido)-3,3-dimethylbutanoyl)-4-hydroxy-N-(4-(4-methylthiazol-5-yl)benzyl)pyrrolidine-2-carboxamide], at EED in HeLa cells [1], the “EED levels (Jess)” value is “decrease in the levels”. In the data set with EZH2 in HeLa cells [2], the “EZH2 levels (Jess)” value was “decrease in the levels”. In addition, the “loss in potency compared to EED226” value in data set [3] was 6 fold.
Turning to `Cc1ncsc1-c1ccc(CNC(=O)[C@@H]2C[C@@H](O)CN2C(=O)[C@@H](NC(=O)CCOCCOCCNC(=O)c2ccc(-c3cnc(NCc4ccco4)n4cnnc34)cc2)C(C)(C)C)cc1` [UNC6845, (2S,4R)-1-((S)-13-(tert-butyl)-1-(4-(5-((furan-2-ylmethyl)amino)-[1,2,4]triazolo[4,3-c]pyrimidin-8-yl)phenyl)-1,11-dioxo-5,8-dioxa-2,12-diazatetradecan-14-oyl)-4-hydroxy-N-(4-(4-methylthiazol-5-yl)benzyl)pyrrolidine-2-carboxamide], on EED in HeLa cells [1], the “EED levels (Jess)” value is “unable to alter the levels”. The “EZH2 levels (Jess)” value in the data set with EZH2 in HeLa cells [2] is listed as “unable to alter the levels”. In addition, the “loss in potency compared to EED226” value in data set [3] is recorded as 2 fold.
By viability is commonly meant a read-out of living cells in per cent, often relative to untreated cells. Read a high viability as less harm to the cells. Turning to `CCCc1cc(C)[nH]c(=O)c1CNC(=O)c1cc(-c2ccc(N3CCN(C(C)C)CC3)nc2)cc2c1cnn2C(C)C` [UNC1999, reference compound], at EED in HeLa cells [4] (HeLa cells), the EED protein levels result is “had no effect”. Also, the EZH2 protein levels result in the data set on EZH2 in HeLa cells [5] was “had no effect”. In the data set on H3K27me3 in HeLa cells, this compound returned an H3K27me3 reduced of 60%. Besides, the viability at 12 days, 3 μM in the data set “DB cell viability” is 67%.
`Cc1ncsc1-c1ccc(CNC(=O)[C@@H]2C[C@@H](O)CN2C(=O)[C@@H](NC(=O)CCCCNC(=O)c2ccc(-c3cnc(NCc4ccco4)n4cnnc34)cc2)C(C)(C)C)cc1` [UNC6853, (2S,4R)-1-((S)-2-(5-(4-(5-((furan-2-ylmethyl)amino)-[1,2,4]triazolo[4,3-c]pyrimidin-8-yl)benzamido)pentanamido)-3,3-dimethylbutanoyl)-4-hydroxy-N-(4-(4-methylthiazol-5-yl)benzyl)pyrrolidine-2-carboxamide]: on EED in HeLa cells [1], the “EED levels (Jess)” value was “significant degradation was not observed”. In addition, the “EZH2 levels (Jess)” value in the data set with EZH2 in HeLa cells [2] is given as “significant degradation was not observed”. Besides, the “loss in potency compared to EED226” value in [3] stood at 8 fold.
Usually Dmax stands for the greatest extent of degradation seen. Take `Cc1ncsc1-c1ccc(CNC(=O)[C@@H]2C[C@@H](O)CN2C(=O)[C@@H](NC(=O)CCCNC(=O)c2ccc(-c3cnc(NCc4ccco4)n4cnnc34)cc2)C(C)(C)C)cc1` [UNC6852, (2S,4R)-1-((S)-2-(4-(4-(5-((furan-2-ylmethyl)amino)-[1,2,4]triazolo[4,3-c]pyrimidin-8-yl)benzamido)butanamido)-3,3-dimethylbutanoyl)-4-hydroxy-N-(4-(4-methylthiazol-5-yl)benzyl)pyrrolidine-2-carboxamide]: the “EED levels (Jess)” value at EED in HeLa cells [1] is recorded as “decrease in the levels”. Moreover, the “EZH2 levels (Jess)” value with EZH2 in HeLa cells [2] is “decrease in the levels”. Besides, the EED degradation on EED in HeLa cells [4] (HeLa cells, 5 μM, 24 hours, western blot) is on record as 80%. Moreover, on EED in HeLa cells [4] (HeLa cells), the EED protein levels result is reported as “decrease in protein levels”. Further, the greatest degradation seen (Dmax) at 30 µM at EED in HeLa cells [4] (HeLa, read-out: Dmax EED (maximal degradation)) came to 92%. This compound returned an EZH2 degradation with EZH2 in HeLa cells [5] (5 μM, 24 hours, western blot) of 76%. The EZH2 protein levels result with EZH2 in HeLa cells [5] was “decrease in protein levels”. Moreover, the “Dmax EZH2 (maximal degradation)” value in the data set on EZH2 in HeLa cells [5] (% degradation at 30 μM after 24 hours) turned out to be 75%. The “Dmax SUZ12 (maximal degradation)” value with SUZ12 in HeLa cells [6] (western blot) is 22%. Also, the cellular toxicity entry with HeLa cells was “no cellular toxicity was observed”. Further, the “SUZ12 degradation (proteomics)” value with SUZ12 in HeLa cells [7] is on record as 21%. Also, in the data set on SUZ12 in HeLa cells [7], the “SUZ12 log2 fold change (treated/DMSO treated)” value is on record as −0.34. In the data set with H3K27me3 in HeLa cells, this compound gave an H3K27me3 reduced of 51%. In the data set with H3K27me3 in HeLa cells (96 hours of treatment), the “H3K27me3 levels after 96 hours” value was “further decrease in H3K27me3 levels”. In data set [8] (DB, read-out: Dmax EED), the Dmax amounted to 94%. Further, the DC50 in data set [8] (read-out: DC50 EED, DB cells, 24 hours) came out at 610 ± 180 nM; in data set [9] (read-out: DC50 EZH2/EZH2^Y641N, 24 hours) it was 670 ± 240 nM. Also, the “Dmax EZH2/EZH2^Y641N” value in [9] was found to be 96%. Also, the “Dmax SUZ12” value in data set [10] (DB cells) is recorded as 82%. The “maximal degradation of SUZ12 in DB cells relative to HeLa cells” value in data set [10] (DB vs HeLa) was 3.7 fold. Besides, in [10] (read-out: half maximal degradation concentration SUZ12, DB cells, 24 hours), the EC50 came to 590 ± 170 nM. For the same compound, in data set [11], the “loss of H3K27me3” value amounted to 71%. Further, the “degradation of PRC2 subunits” value in data set [12] is “degradation of all three PRC2 subunits”. Also, the “effect on cell proliferation” value in the data set on DB cells and in the data set with Pfeiffer cells was “robust anti-proliferative effects” in each case. For the same compound, the viability at 12 days, 3 μM in the data set “DB cell viability” is 95%. In data set [3], the “loss in potency compared to EED226” value turned out to be 5.5 fold.
For the compound `Cc1ncsc1-c1ccc(CNC(=O)[C@@H]2C[C@H](O)CN2C(=O)[C@@H](NC(=O)CCCNC(=O)c2ccc(-c3cnc(NCc4ccco4)n4cnnc34)cc2)C(C)(C)C)cc1` [UNC7043, (2S,4S)-1-((S)-2-(4-(4-(5-((furan-2-ylmethyl)amino)-[1,2,4]triazolo[4,3-c]pyrimidin-8-yl)benzamido)butanamido)-3,3-dimethylbutanoyl)-4-hydroxy-N-(4-(4-methylthiazol-5-yl)benzyl)pyrrolidine-2-carboxamide], on EED in HeLa cells [4] (HeLa cells, 10 μM for 24 hrs), the “EED degradation (western blot)” value is listed as “did not degrade”. For the same compound, the “EZH2 degradation (western blot)” value in the data set with EZH2 in HeLa cells [5] (10 μM for 24 hrs) is “did not degrade”. For the same compound, the “SUZ12 degradation (western blot)” value in the data set with SUZ12 in HeLa cells [6] (10 μM for 24 hrs) was “did not degrade”. The “EED levels (western blot)” value in [8] (DB cells, 10 μM for 24 hours) is “did not affect the levels”. In data set [9] (10 μM for 24 hours), the “EZH2 levels (western blot)” value is on record as “did not affect the levels”. Also, the “SUZ12 levels (western blot)” value in [10] (DB cells, 10 μM for 24 hours) was “did not affect the levels”. Moreover, the “effect on cell proliferation” value in the data set with DB cells and with Pfeiffer cells was “had no effect on cell proliferation” in each case.
What is called IC50 is the concentration at which inhibition is half-maximal. Take `CS(=O)(=O)c1ccc(-c2cnc(NCc3ccco3)n3cnnc23)cc1` [EED226, reference compound]: at EED in HeLa cells [4] (HeLa cells), the EED protein levels entry is “had no effect”. For the same compound, in the data set on EZH2 in HeLa cells [5], the EZH2 protein levels result is recorded as “had no effect”. The H3K27me3 reduced with H3K27me3 in HeLa cells was 52%. Moreover, the viability at 12 days, 3 μM in “DB cell viability” was found to be 67%. Moreover, in the data set on EED, the IC50 is 22 nM.
For the compound `Cc1ncsc1-c1ccc(CNC(=O)[C@@H]2C[C@@H](O)CN2C(=O)[C@@H](NC(=O)CCOCCOCCOCCOCCNC(=O)c2ccc(-c3cnc(NCc4ccco4)n4cnnc34)cc2)C(C)(C)C)cc1` [UNC6847, (2S,4R)-1-((S)-19-(tert-butyl)-1-(4-(5-((furan-2-ylmethyl)amino)-[1,2,4]triazolo[4,3-c]pyrimidin-8-yl)phenyl)-1,17-dioxo-5,8,11,14-tetraoxa-2,18-diazaicosan-20-oyl)-4-hydroxy-N-(4-(4-methylthiazol-5-yl)benzyl)pyrrolidine-2-carboxamide], on EED in HeLa cells [1], the “EED levels (Jess)” value is “unable to alter the levels”. The “EZH2 levels (Jess)” value with EZH2 in HeLa cells [2] is listed as “unable to alter the levels”. Besides, the “loss in potency compared to EED226” value in data set [3] came to 5 fold.
On to `Cc1ncsc1-c1ccc(CNC(=O)[C@@H]2C[C@@H](O)CN2C(=O)[C@@H](NC(=O)COCCOCCOCCNC(=O)c2ccc(-c3cnc(NCc4ccco4)n4cnnc34)cc2)C(C)(C)C)cc1` [UNC6846, (2S,4R)-1-((S)-15-(tert-butyl)-1-(4-(5-((furan-2-ylmethyl)amino)-[1,2,4]triazolo[4,3-c]pyrimidin-8-yl)phenyl)-1,13-dioxo-5,8,11-trioxa-2,14-diazahexadecan-16-oyl)-4-hydroxy-N-(4-(4-methylthiazol-5-yl)benzyl)pyrrolidine-2-carboxamide], for which, on EED in HeLa cells [1], the “EED levels (Jess)” value is reported as “unable to alter the levels”. The “EZH2 levels (Jess)” value in the data set on EZH2 in HeLa cells [2] is given as “unable to alter the levels”. For the same compound, the “loss in potency compared to EED226” value in data set [3] worked out at 14 fold.
